Results from ChEMBL document CHEMBL1146099, “Anthranilic acid based CCK1 receptor antagonists and CCK-8 have a common step in their "receptor desmodynamic processes"” (J Med Chem, 2006).

Target: T1, Cholecystokinin receptor type A (Homo sapiens, UniProt P32238)
T1 sequence (P32238 whole entry): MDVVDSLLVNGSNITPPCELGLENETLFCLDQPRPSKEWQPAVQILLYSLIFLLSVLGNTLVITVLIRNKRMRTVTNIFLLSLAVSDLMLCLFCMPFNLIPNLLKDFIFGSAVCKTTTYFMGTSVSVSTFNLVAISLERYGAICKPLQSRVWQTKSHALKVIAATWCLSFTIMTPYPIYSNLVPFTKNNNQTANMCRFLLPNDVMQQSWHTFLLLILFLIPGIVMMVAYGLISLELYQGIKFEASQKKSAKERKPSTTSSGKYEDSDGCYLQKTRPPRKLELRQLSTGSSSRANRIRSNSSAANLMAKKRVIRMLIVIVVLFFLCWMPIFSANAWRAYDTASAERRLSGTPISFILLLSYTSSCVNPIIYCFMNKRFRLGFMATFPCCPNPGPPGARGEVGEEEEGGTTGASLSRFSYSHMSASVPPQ
Test: Displacement of [111In]DTPA-Glu-Gly-[Tyr27(SO3H)]-CCK8 from human CCK1 receptor in A431 cells
Format: cell-based, A-431

SMILES | IC50 [nM]
CCCCCN(CCCOC)C(=O)C(CCC(=O)O)NC(=O)c1ccc(Cl)c(Cl)c1 (stereo not given) [LOXIGLUMIDE] | 195
CC(NC(=O)c1ccccc1NC(=O)c1cc2ccccc2[nH]1)C(=O)O (racemic) | 2800

Further compounds by falling IC50, results first:

IC50 [nM] | SMILES
12700 | CC(=O)N/C(=C/c1ccccc1)C(=O)Nc1ccccc1C(=O)NC(Cc1ccccc1)C(=O)O (racemic)
4000 | O=C(/C=C/c1ccccc1)Nc1ccccc1C(=O)NC(Cc1ccccc1)C(=O)O (racemic)
197 | O=C(Nc1ccccc1C(=O)NC(Cc1ccccc1)C(=O)O)c1cc2ccccc2[nH]1 (racemic)
